Data from patent US8389268B2, “Method and culture medium for enhanced detection of mycobacterium” (priority 2009, dated 2013).
Several values for one entry are separate records, joined by “and”; a condition that tells them apart may be missing. Equal values may be shown once. Read-outs that look alike come from different tables or passages of the source.

What was measured:
mycobacteria = format: cell-based, Mycobacterium species
[1] = system: contaminating respiratory flora (CRF); experiment: Suppression of contaminating respiratory flora (CRF), growth or no growth in BacT/ALERT MP culture bottles; format: cell-based, gram positive or gram negative bacterial and yeast cultures; settings: screen of various drugs
M. avium 25291 = experiment: Time to detection (TTD) of growth in BacT/ALERT MP culture bottles; format: cell-based, Mycobacterium avium; settings: for # Positive: of 4.0 tested
MTB 27294 = experiment: as above; format: cell-based, Mycobacterium tuberculosis; settings: for # Positive: of 4.0 tested
M. intracellulare 13950 = experiment: as above; format: cell-based, Mycobacterium intracellulare; settings: for # Positive: of 4.0 tested
M. kansasii 12478 = experiment: as above; format: cell-based, Mycobacterium kansasii; settings: for # Positives / # Positive: of 4.0 tested
M. scrofulaceum 19981 = experiment: as above; format: cell-based, Mycobacterium scrofulaceum
M. fortuitum 6841 = experiment: as above; settings: for # Positives / # Positive: of 4.0 tested
MTB 25177 = experiment: as above; format: cell-based, Mycobacterium tuberculosis; settings: for # Positive: of 4.0 tested
Experimental: For Growth Performance, […] organisms (M. tuberculosis, M. avium, and M. intracellulare) were tested. The conventional MAS formulation was used for these experiments. The new supplement with/without FA supplementation and conventional/old RF were used to rehydrate a lyophilized powder of the conventional or old MB BacT antibiotic supplement (conventional/old MAS) (bioMérieux, Inc.).
For the new supplement, the new, autoclavable BacT/ALERT® MP bottle (as described hereinabove) was used and for conventional/old RF, the conventional/old MP bottle was used. Before the inoculation of new and conventional/old MP culture bottles (bioMérieux, Inc.) with mycobacteria cultures, 0.5 ml of new supplement with/without FA or 0.5 ml of conventional/old RF were added to one set of the BacT/ALERT® MP culture bottles. The rehydrated conventional MAS (using new supplement with/without FA and conventional/old RF) was added to the second set of MP culture bottles. The growth (as TTD of growth) was compared in these bottles for Mycobacterium avium, Mycobacterium intracellulare and Mycobacterium tuberculosis cultures after inoculating with approximately 0.5×10^3 CFU/ml.
For the new MAS formulas and NS, a new, autoclaved BacT/ALERT® MP bottle (as described hereinabove) was used and for conventional/old RF, conventional/old MP bottle (bioMérieux, Inc.) was used. […] The conventional MAS (using conventional/old RF) and new MAS formulas (using NS) were added to the second set of MP culture bottles.
The mycobacteria inoculum was 0.5×10^3 CFU/ml.

CC(O)C(=O)O (centres unmarked) [lactate]
reduction in TTD (mycobacteria): did not show a reduction in TTD

C[C@@H]1O[C@@H]1P(=O)(O)O [fosfomycin]
ability to suppress contaminating respiratory flora (CRF) [1]: best choice for suppression of CRF

O=C(O)CC(=O)C(=O)O [oxaloacetic acid]
reduction in TTD (mycobacteria): did not show a reduction in TTD

O=C(O)CCC(=O)C(=O)O [α-keto glutarate, α-ketoglutarate]
reduction in time to detection (TTD) of growth (mycobacteria): approximate two days reduction | Avg. TTD (M. avium 25291): 13.5 days and 13.8 days | No. of positives (M. avium 25291): 3 | Avg. TTD (MTB 27294): 14.3 days and 13.9 days | No. of positives (MTB 27294): 3 | Avg. TTD (M. intracellulare 13950): 9.0 days and 8.8 days | No. of positives (M. intracellulare 13950): 3

CN[C@H](CC(C)C)C(=O)N[C@H]1C(=O)N[C@@H](CC(N)=O)C(=O)N[C@H]2C(=O)N[C@H]3C(=O)N[C@H](C(=O)N[C@H](C(=O)O)c4cc(O)cc(O)c4-c4cc3ccc4O)[C@H](O)c3ccc(c(Cl)c3)Oc3cc2cc(c3O[C@@H]2O[C@H](CO)[C@@H](O)[C@H](O)[C@H]2O[C@H]2C[C@](C)(N)[C@H](O)[C@H](C)O2)Oc2ccc(cc2Cl)[C@H]1O [VAN, vancomycin]
effect on growth (as determined by TTD of growth) (mycobacteria): negative effect on the growth | # Positives (M. kansasii 12478; Table 5, Media + VAN 1.75): 4.0 | Average TTD (M. kansasii 12478; Table 5, Media + VAN 3.5): 21.5 days | # Positives (M. kansasii 12478; Table 5, Media + VAN 3.5): 2.0 | # Positives (M. avium 25291): 4.0 and 3.0 | Average TTD (M. avium 25291): 20.6 days and 21.2 days | Average TTD (M. scrofulaceum 19981; Table 5, Media + VAN 1.75): 14.2 days | # Positives (M. scrofulaceum 19981; Table 5, Media + VAN 1.75, of 4.0 tested): 4.0 | Average TTD (M. scrofulaceum 19981; Table 5, Media + VAN 3.5): 14.0 days | # Positives (M. scrofulaceum 19981; Table 5, Media + VAN 3.5, of 4.0 tested): 4.0 | Average TTD (M. scrofulaceum 19981; Table 5, Media + VAN 7): 15.3 days | # Positives (M. scrofulaceum 19981; Table 5, Media + VAN 7, of 1.0 tested): 1.0 | Average TTD (M. fortuitum 6841; Table 5, Media + VAN 1.75): 4.7 days | # Positives (M. fortuitum 6841; Table 5, Media + VAN 1.75): 4.0 | Average TTD (M. fortuitum 6841; Table 5, Media + VAN 3.5): 4.1 days | # Positives (M. fortuitum 6841; Table 5, Media + VAN 3.5): 4.0 | Average TTD (M. fortuitum 6841; Table 5, Media + VAN 7): 4.8 days | # Positives (M. fortuitum 6841; Table 5, Media + VAN 7): 4.0 | # Positives (MTB 25177): 2.0 | Average TTD (MTB 25177): 23.7 days | # Positives (MTB 27294): 4.0 | Average TTD (MTB 27294): 16.3 days and 16.0 days and 18.3 days | # Positives (M. intracellulare 13950): 4.0 | Average TTD (M. intracellulare 13950): 9.4 days and 9.7 days and 10.3 days

O=C(O)C[C@H](O)C(=O)O [L-malate]
reduction in TTD (mycobacteria): did not show a reduction in TTD

N=C(N)NCCC[C@H](N)C(=O)O [L-arginine]
reduction in TTD (mycobacteria): did not show a reduction in TTD

CC1(C)S[C@@H]2[C@H](NC(=O)[C@H](NC(=O)N3CCNC3=O)c3ccccc3)C(=O)N2[C@H]1C(=O)O [AZL, azlocillin]
effect on growth (as determined by TTD of growth) (mycobacteria): negative effect on the growth | Average TTD (M. kansasii 12478; Table 4, Media + AZL 12): 18.5 days | # Positive (M. kansasii 12478; Table 4, Media + AZL 12): 3.0 | Average TTD (M. kansasii 12478; Table 4, Media + AZL 24): 18.9 days | # Positive (M. kansasii 12478; Table 4, Media + AZL 24): 4.0 | Average TTD (M. kansasii 12478; Table 4, Media + AZL 48): 20.5 days | # Positive (M. kansasii 12478; Table 4, Media + AZL 48): 1.0 | Average TTD (M. avium 25291; Table 4, Media + AZL 12): 20.1 days | # Positive (M. avium 25291; Table 4, Media + AZL 12): 4.0 | Average TTD (M. avium 25291; Table 4, Media + AZL 24): 22.2 days | # Positive (M. avium 25291; Table 4, Media + AZL 24): 4.0 | Average TTD (M. avium 25291; Table 4, Media + AZL 48): 21.2 days | # Positive (M. avium 25291; Table 4, Media + AZL 48): 4.0 | Average TTD (M. scrofulaceum 19981; Table 4, Media + AZL 12): 24.2 days | # Positive (M. scrofulaceum 19981; Table 4, Media + AZL 12, of 4.0 tested): 2.0 | Average TTD (M. scrofulaceum 19981; Table 4, Media + AZL 48): 21.7 days | # Positive (M. scrofulaceum 19981; Table 4, Media + AZL 48, of 3.0 tested): 1.0 | Average TTD (M. fortuitum 6841; Table 4, Media + AZL 12): 4.0 days | # Positive (M. fortuitum 6841; Table 4, Media + AZL 12): 4.0 | Average TTD (M. fortuitum 6841; Table 4, Media + AZL 24): 4.2 days | # Positive (M. fortuitum 6841; Table 4, Media + AZL 24): 4.0 | Average TTD (M. fortuitum 6841; Table 4, Media + AZL 48): 4.1 days | # Positive (M. fortuitum 6841; Table 4, Media + AZL 48): 4.0 | Average TTD (MTB 25177; Table 4, Media + AZL 12): 22.4 days | # Positive (MTB 25177; Table 4, Media + AZL 12): 4.0 | Average TTD (MTB 25177; Table 4, Media + AZL 24): 23.8 days | # Positive (MTB 25177; Table 4, Media + AZL 24): 2.0 | Average TTD (MTB 25177; Table 4, Media + AZL 48): 24.8 days | # Positive (MTB 25177; Table 4, Media + AZL 48): 2.0 | Average TTD (MTB 27294; Table 4, Media + AZL 12): 15.4 days | # Positive (MTB 27294; Table 4, Media + AZL 12): 4.0 | Average TTD (MTB 27294; Table 4, Media + AZL 24): 16.0 days | # Positive (MTB 27294; Table 4, Media + AZL 24): 4.0 | Average TTD (MTB 27294; Table 4, Media + AZL 48): 15.4 days | # Positive (MTB 27294; Table 4, Media + AZL 48): 4.0 | Average TTD (M. intracellulare 13950; Table 4, Media + AZL 12): 16.4 days | # Positive (M. intracellulare 13950; Table 4, Media + AZL 12): 4.0 | Average TTD (M. intracellulare 13950; Table 4, Media + AZL 24): 19.8 days | # Positive (M. intracellulare 13950; Table 4, Media + AZL 24): 4.0 | Average TTD (M. intracellulare 13950; Table 4, Media + AZL 48): 20.0 days | # Positive (M. intracellulare 13950; Table 4, Media + AZL 48): 2.0
